Source: patent publication US20210317090A1, “AMINO ACID DEPLETION AGENTS AS ANTIPROLIFERATIVE AGENTS” (University of Central Florida Research Foundation, Inc., priority 2018, published 2021)

Tests used:
Format in all cases: cell-based, human
L3.6pl cells [1] = experiment: Intracellular leucine and methionine after cell lysis (LCMS); details: 72 h
Method: This example illustrates aspects according to various embodiments pertaining to a 72 h experiment with Compound 10 in L3.6pl cells. Ten milliliters of a cell suspension containing L3.6pl human pancreatic cancer cells (50,000 cells/mL) and aminoguanidine ([…]) were placed in treated plastic Petri dishes (d=9 cm) and incubated overnight at 37° C. After 24 h, the cells were dosed with compound 10 at 2 μM, 5 μM, or 7 μM. (Note: Stock solutions of 10 at 2, 5, and 7 mM were dissolved in phosphate buffered saline (PBS) and were filtered through a 0.2 μm filter prior to use. The experiments were maintained with a total volume of 10.01 mL where 10 mL of the cell suspension was placed in a plastic dish and each compound or the equivalent PBS volume was added to make up the total volume 10.01 mL for each dish. For example, for the control experiment PBS (10 μL) was added to make up the total volume (10 mL+10 μL=10.01 mL). After 72 h incubation, the cells were collected first by pipetting off the supernatant containing floating dead cells from the culture dish as well as media and placing them into 15 mL tubes. The supernatant containing floating cells was centrifuged (4 min at 1,000 rpm). The cell-free supernatant (supernatant #1) was collected into a new 15 mL tube and quantified (˜8.6 mL) and was then stored frozen and was later quantified by LCMS to investigate the media composition of particular polyamine and amino acid analytes. The attached cells on the dish were washed with PBS (5 mL). The PBS wash was removed by suction and additional PBS (2 mL) was added and again suctioned off to provide twice-washed cells still adhered to the dish. Trypsin (2 mL) was then added to each dish and incubated (3-5 min) until all the cells were detached. Fresh media (8 mL) was added to quench the trypsin. The cell solutions were pipetted into separate 15 mL tubes and centrifuged (4 min at 1,000 rpm). The resulting supernatant was removed to provide a pellet. The pellet was suspended in PBS (10 mL) and was counted by a hemocytometer to provide cell counts for each experimental condition. The pellet was then centrifuged (4 min at 1,000 rpm) and the supernatant removed and the remaining pellet was quantified via protein and polyamine analysis.
To each cell pellet, a perchloric acid (100 μL) buffer solution (0.2M HClO4/1 M NaCl) and 0.9% NaCl (50 μL) was added. The samples were sonicated via sonic dismembranator in small bursts until samples were homogenized and cloudy. Additional perchloric acid (50 μL) buffer solution was added. The homogenized samples were then vortexed and centrifuged (10 min at 4,000 rpm). The supernatants of the respective samples (supernatant #2) were removed and quantified by calibrated pipet (˜190 μL volume). Note: 100 μL of supernatant #2 was placed into a micro-centrifuge tube for polyamine analysis by the N-dansylation HPLC protocol and the rest was placed into a different micro-centrifuge tube for analysis by LCMS of specific amino acid analytes. The respective supernatants were stored in the freezer for polyamine and LCMS quantification and the remaining protein pellet was used for the protein analysis. The protein pellet was dissolved in aq. NaOH (1 mM, 200 μL). The sample stood at room temperature with occasional vortex (45 min) and was then centrifuged (15 min at 15,000 rpm). The supernatant was collected and dissolved protein was quantified using the commercial Pierce BCA kit according to manufacturer's protocol.
This example illustrates aspects according to various embodiments pertaining to an LCMS Analysis. […]

L3.6pl cells [2] = experiment: Ant-44 toxicity potentiation assay in L3.6pl cells
Method: As performed previously with CHO K1 cells, L3.6pl cells were treated with compounds 9 (1666.177) and 10 (1666.255) and a fixed dose of Ant-44 to observe the potentiation effect. The 72 h IC50 dose of Ant-44 in L3.6pl cells was previously determined to be 4 μM. For this study, half that dose was used to replicate the large window used in the CHO experiments to look at reduction in cell viability. In a 96-well plate, L3.6pl cells were dosed with a fixed concentration of Ant-44 (2 μM) and increasing doses of compounds 9 (1666.177) and 10 (1666.255). Although both compounds were effective at reducing cell viability, higher doses were required compared to CHO K1 cells.
FIG. 6 is an example according to various embodiments, illustrating the ability of compounds 9 (1666.177) and 10 ([…]) to potentiate the effect of Ant-44 in L3.6pl cells. Cells were incubated for 72 h at 37° C. with the respective compound and Ant-44 (2 μM). A 250 μM AG solution was incubated with the cells for 24 h prior to addition of compounds. […] Both compounds are nontoxic at the second highest concentration tested (1 μM).

L3.6pl cells [3] = experiment: Rescue by exogenous native polyamines in L3.6pl cells; details: 72 h, polyamine 1 μM or 5 μM, compound 10 at toxic dose (5 μM or higher)
Method: The question remained as to whether exogenous polyamines could enter and ‘rescue’ the cells back to the growth rate of untreated control. A series of experiments were conducted to determine if cells treated with compound 10 could be rescued by exogenous polyamines. To test this hypothesis, L3.6pl cells were incubated for 72 h with an increasing dose of compound 10 and a dose of one of the native polyamines (putrescine, spermidine, or spermine either at a fixed dose of 1 μM or 5 μM).
FIG. 10A is an example according to various embodiments, illustrating the inability of native polyamine putrescine (Put at 1 μM and 5 μM) to rescue L3.6pl cells treated with compound 10 (e.g., from 2-15 μM). FIG. 10B is an example according to various embodiments, illustrating inability of native polyamine spermidine (Spd at 1 μM and 5 μM) to rescue L3.6pl cells treated with compound 10 (e.g., from 2-15 μM). FIG. 10C is an example according to various embodiments, illustrating inability of the native polyamine spermine (Spm at 1 μM and 5 μM) to rescue L3.6pl cells treated with compound 10 (2-15 μM). The L3.6pl cells were incubated with 250 μM aminoguanidine (AG) for 24 h prior to the addition of compound 10, followed by 72 h incubation at 37° C. […]

CC(C)CCN1CCN(C(CNCc2ccccc2)CC2CCCCC2)CC1CC(C)C.Cl.Cl.Cl (stereo not drawn) [Compound 10, Benzyl-{3-cyclohexyl-2-[3-isobutyl-4-(3-methyl-butyl)-piperazin-1-yl]-propyl}-amine trihydrochloride salt]
Intracellular level Leucine (L3.6pl cells [1]; 2 μM): 152 ± 8 pmol/mg protein | Intracellular level Methionine (L3.6pl cells [1]; 2 μM): 226 ± 21 pmol/mg protein | Intracellular level Leucine (L3.6pl cells [1]; 5 μM): 94 ± 3 pmol/mg protein | Intracellular level Methionine (L3.6pl cells [1]; 5 μM): 41 ± 23 pmol/mg protein | Intracellular level Leucine (L3.6pl cells [1]; 7 μM): 77 ± 1 pmol/mg protein | Intracellular level Methionine (L3.6pl cells [1]; 7 μM): Not detected | effectiveness at increasing the potency of Ant-44 relative to compound 9 (L3.6pl cells [2]): approximately eleven times more effective | EC50 (L3.6pl cells [2]; Homo sapiens, Ant-44 2 μM, 72 h): 0.29 ± 0.1 µM | rescue of treated cells by putrescine, spermidine or spermine (L3.6pl cells [3]): none of the three native polyamines (at 1 μM or 5 μM) were able to rescue
